Experiment [1] deals with pY641-STAT6 in Peripheral Blood Mononuclear Cells (PBMC). Description: MSD-pSTAT-PBMC Assay (pSTAT6, IL-4 stimulated). The format is cell-based, Human. Conditions: Homo sapiens, compound 3 hrs, then 1 ng/mL IL-4 for 10 min. An outline of the steps:
(§1)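 Human PBMCs were preincubated 3 h with compound, then stimulated 10 min with 10 ng/mL IL-6 (pY705-STAT3) or 1 ng/mL IL-4 (pY641-STAT6). Lysates were read by MSD sandwich immunoassay, capturing total STAT and detecting phospho-STAT. Signal was unstimulated-subtracted and DMSO-normalised, with variable-slope IC50 binned A–D.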

Experiment [2] deals with pY705-STAT3 in Peripheral Blood Mononuclear Cells (PBMC). Description: MSD-pSTAT-PBMC Assay (pSTAT3, IL-6 stimulated). The format is cell-based, Human. Conditions: Homo sapiens, compound 3 hrs, then 10 ng/mL IL-6 for 10 min. A digest of the protocol:
as §1

From US20250179103A1, “6-OXODECAHYDROPYRROLO[1,2-A][1,5]DIAZOCINE AND 6-OXODECAHYDRO-4H-PYRROLO[2,1-D][1,5]THIAZOCINE DERIVATIVES AS STAT3 AND STAT6 MODULATORS FOR THE TREATMENT OF CANCER AND INFLAMMATORY CONDITIONS” (Recludix Pharma, Inc., priority 2022, published 2025) come the findings set out here.

For the molecule `CC(=O)N1CC[C@H]2CC[C@@H](C(=O)N(C)C3CCN(S(C)(=O)=O)CC3)N2C(=O)[C@@H](NC(=O)c2cc3cc(C(F)(F)P(=O)(OCOC(=O)C(C)(C)C)OCOC(=O)C(C)(C)C)ccc3s2)C1` [Compound 312, ((((2-(((5S, 8S,10aR)-3-acetyl-8-(methyl(1-(methyl-sulfonyl)piperidin-4-yl)carbamoyl)-6-oxodecahydro-pyrrolo[1,2-a][1,5]diazocin-5-yl)carbamoyl)benzo[b]thiophen-5-yl)difluoro-methyl)phos-phoryl)bis(oxy))bis (methylene) bis(2,2-dimethylpro-panoate)], the values for the half-inhibitory concentration (IC50) in experiment [1] and in experiment [2] were 100 to 1000 nM and over 3000 nM, respectively.

Take `CC(=O)N1CC[C@H]2CC[C@@H](C(=O)NC3CCN(S(C)(=O)=O)CC3)N2C(=O)[C@@H](NC(=O)c2cc3cc(C(F)(F)P(=O)(OCOC(=O)C(C)(C)C)OCOC(=O)C(C)(C)C)ccc3s2)C1` [Compound 313, ((((2-(((5S, 8S,10aR)-3-acetyl-8-((1-(methyl-sulfonyl)piperidin-4-yl)carbamoyl)-6-oxodecahydro-pyrrolo[1,2-a][1,5]diazocin-5-yl)carbamoyl)benzo[b]thiophen-5-yl)difluoro-methyl)phos-phoryl)bis(oxy)) bis(methylene) bis(2,2-dimethylpro-panoate)]: the values for the 50% inhibitory concentration (IC50) in experiment [1] and in experiment [2] were 1000 to 3000 nM and over 3000 nM, respectively.

For the molecule `CC(=O)N1CC[C@H]2CC[C@@H](C(=O)Nc3ccc(S(C)(=O)=O)cc3)N2C(=O)[C@@H](NC(=O)c2cc3cc(C(F)(F)P(=O)(OCOC(=O)C(C)(C)C)OCOC(=O)C(C)(C)C)ccc3s2)C1` [Compound 314, ((((2-(((5S, 8S,10aR)-3-acetyl-8-((4-(methyl-sulfonyl)phenyl)carbamoyl)-6-oxodecahydro-pyrrolo[1,2-a][1,5]diazocin-5-yl)carbamoyl)benzo[b]thiophen-5-yl)difluoro-methyl)phos-phoryl)bis(oxy))bis (methylene) bis(2,2-dimethylpro-panoate)], the IC50 was 100 to 1000 nM in experiment [1] and 1000 to 3000 nM in experiment [2].

As for `CC(=O)N1CC[C@H]2CC[C@@H](C(=O)N(C)c3ccccc3)N2C(=O)[C@@H](NC(=O)/C=C/c2ccc(C(F)(F)P(=O)(OCOC(=O)C(C)(C)C)OCOC(=O)C(C)(C)C)cc2)C1` [Compound 315, ((((4-((E)-3-(((5S,8S, 10aR)-3-acetyl-8-(methyl (phenyl)carbamoyl)-6-oxodecahydro-pyrrolo[1,2-a][1,5]diazocin-5-yl)amino)-3-oxoprop-1-en-1-yl)phenyl)difluoro-methyl)phosphoryl)bis(oxy))bis (methylene) bis(2,2-dimethylpro-panoate)], the IC50 in experiment [1] was 100 to 1000 nM; in experiment [2], over 3000 nM.

Take `CC(=O)N1CC[C@H]2CC[C@@H](C(=O)N(C)c3ccc(C#N)cc3)N2C(=O)[C@@H](NC(=O)c2cc3cc(C(F)(F)P(=O)(OCOC(=O)C(C)(C)C)OCOC(=O)C(C)(C)C)ccc3s2)C1` [Compound 316, ((((2-(((5S,8S, 10aR)-3-acetyl-8-((4-cyanophenyl) (methyl)carbamoyl)-6-oxodecahydro-pyrrolo[1,2-a][1,5]diazocin-5-yl)carbamoyl)benzo[b]thiophen-5-yl)difluoro-methyl)phos-phoryl)bis(oxy)) bis(methylene) bis(2,2-dimethylpro-panoate)]: the IC50 is 1000 to 3000 nM in experiment [1] and over 3000 nM in experiment [2].

Regarding `CCOP(=O)(OCC)C(F)(F)c1ccc2sc(C(=O)N[C@H]3CN(C(C)=O)CC[C@H]4CC[C@@H](C(=O)N(C)c5ccccc5)N4C3=O)cc2c1` [Compound 317, diethyl ((2-(((5S,8S, 10aR)-3-acetyl-8-(methyl (phenyl)carbamoyl)-6-oxodecahydro-pyrrolo[1,2-a][1,5]diazocin-5-yl)carbamoyl)benzo[b]thiophen-5-yl)difluoro-methyl)phos-phonate], the IC50 in experiment [1] and in experiment [2] was over 3000 nM in each case.

As to `CC(=O)N1CC[C@H]2CC[C@@H](C(=O)N(C)c3ccccc3)N2C(=O)[C@@H](NC(=O)c2cc3cc(C(F)(F)P(=O)(OCOC(=O)OC(C)C)OCOC(=O)OC(C)C)ccc3s2)C1` [Compound 318, ((((2-(((5S,8S, 10aR)-3-acetyl-8-(methyl (phenyl)carbamoyl)-6-oxodecahydro-pyrrolo[1,2-a][1,5]diazocin-5-yl)carbamoyl)benzo[b]thiophen-5-yl)difluoro-methyl)phos-phoryl)bis(oxy)) bis(methylene) diisopropyl bis(carbonate)], the half-maximal inhibitory concentration (IC50) in experiment [1] and in experiment [2] was 100 to 1000 nM each time.

On to `CC(=O)N1CC[C@H]2CC[C@@H](C(=O)N(C)c3ccc(C(C)(C)C)cc3)N2C(=O)[C@@H](NC(=O)c2cc3cc(C(F)(F)P(=O)(OCOC(=O)C(C)(C)C)OCOC(=O)C(C)(C)C)ccc3s2)C1` [Compound 319, ((((2-(((5S,8S, 10aR)-3-acetyl-8-((4-(tert-butyl)phenyl) (methyl)carbamoyl)-6-oxodecahydro-pyrrolo[1,2-a][1,5]diazocin-5-yl)carbamoyl)benzo[b]thiophen-5-yl)difluoro-methyl)phos-phoryl)bis(oxy)) bis(methylene) bis(2,2-dimethylpro-panoate)], for which the half-maximal inhibitory concentration (IC50) in experiment [1] is at most 100 nM; in experiment [2], 100 to 1000 nM.

Turning to `CC(=O)N1CC[C@H]2CC[C@@H](C(=O)N3CCC[C@H]3Cc3ccccc3)N2C(=O)[C@@H](NC(=O)c2cc3cc(C(F)(F)P(=O)(OCOC(=O)C(C)(C)C)OCOC(=O)C(C)(C)C)ccc3s2)C1` [Compound 320, ((((2-(((5S,8S, 10aR)-3-acetyl-8-((S)-2-benzyl-pyrrolidine-1-carbonyl)-6-oxodecahydro-pyrrolo[1,2-a][1,5]diazocin-5-yl)carbamoyl)benzo[b]thiophen-5-yl)difluoro-methyl)phos-phoryl)bis(oxy)) bis(methylene) bis(2,2-dimethylpro-panoate)], the IC50 was at most 100 nM in experiment [1] and 100 to 1000 nM in experiment [2].

Turning to `CC(=O)N1CC[C@H]2CC[C@@H](C(=O)N(C)c3ccccc3)N2C(=O)[C@@H](NC(=O)c2ccc3ccc(C(F)(F)P(=O)(OCOC(=O)C(C)(C)C)OCOC(=O)C(C)(C)C)cc3c2)C1` [Compound 321, ((((7-(((5S,8S, 10aR)-3-acetyl-8-(methyl (phenyl)carbamoyl)-6-oxodecahydro-pyrrolo[1,2-a][1,5]diazocin-5-yl)carbamoyl)naphthalen-2-yl)difluoro-methyl)phos-phoryl)bis(oxy)) bis(methylene) bis(2,2-dimethylpro-panoate)], the results for the IC50 in experiment [1] and in experiment [2] were at most 100 nM and 100 to 1000 nM, respectively.

For `CC(=O)N1CC[C@H]2CC[C@@H](C(=O)N(C)c3ccccc3)N2C(=O)[C@@H](NC(=O)c2ccc3cc(C(F)(F)P(=O)(OCOC(=O)C(C)(C)C)OCOC(=O)C(C)(C)C)ccc3c2)C1` [Compound 322, ((((6-(((5S,8S, 10aR)-3-acetyl-8-(methyl (phenyl)carbamoyl)-6-oxodecahydro-pyrrolo[1,2-a][1,5]diazocin-5-yl)carbamoyl)naphthalen-2-yl)difluoro-methyl)phos-phoryl)bis(oxy)) bis(methylene) bis(2,2-dimethylpro-panoate)], the IC50 in experiment [1] and in experiment [2] was over 3000 nM each time.

For `CC(=O)N1CC[C@H]2CC[C@@H](C(=O)Nc3ccc(-c4ccccc4)cc3)N2C(=O)[C@@H](NC(=O)/C=C/c2ccc(C(F)(F)P(=O)(OCOC(=O)C(C)(C)C)OCOC(=O)C(C)(C)C)cc2)C1` [Compound 324, ((((4-((E)-3-(((5S,8S, 10aR)-8-([1,1′-biphenyl]-4-ylcarbamoyl)-3-acetyl-6-oxodecahydro-pyrrolo[1,2-a][1,5]diazocin-5-yl)amino)-3-oxoprop-1-en-1-yl)phenyl)difluoro-methyl)phosphoryl)bis(oxy))bis (methylene) bis(2,2-dimethylpro-panoate)], the IC50 in experiment [1] and in experiment [2] was over 3000 nM in each case.

On to `CC(=O)N1CC[C@H]2CC[C@@H](C(=O)Nc3ccc(-c4ccccc4)cc3)N2C(=O)[C@@H](NC(=O)/C=C/c2ccc(C(F)(F)P(=O)(OCCSC(=O)CC(C)C)OCCSC(=O)CC(C)C)cc2)C1` [Compound 325, S,S′-(((((4-((E)-3-(((5S,8S, 10aR)-8-([1,1′-biphenyl]-4-ylcarbamoyl)-3-acetyl-6-oxodecahydro-pyrrolo[1,2-a][1,5]diazocin-5-yl)amino)-3-oxoprop-1-en-1-yl)phenyl)difluoro-methyl)phosphoryl)bis(oxy))bis (ethane-2,1-diyl)) bis(3-methylbutane-thioate)], for which the IC50 in experiment [1] and in experiment [2] was over 3000 nM in each case.

Regarding `CC(=O)N1CC[C@H]2CC[C@@H](C(=O)N(C)c3ccccc3)N2C(=O)[C@@H](NC(=O)c2cc3cc(C(F)(F)P(=O)(N[C@H](C)C(=O)OC(C)C)Oc4ccccc4)ccc3s2)C1` (stereo partly drawn) [Compound 326, isopropyl (((2-(((5S,8S, 10aR)-3-acetyl-8-(methyl (phenyl)carbamoyl)-6-oxodecahydro-pyrrolo[1,2-a][1,5]diazocin-5-yl)carbamoyl)benzo[b]thiophen-5-yl)difluoro-methyl) (phenoxy)phosphoryl)-D-alaninate], the IC50 in experiment [1] and in experiment [2] was over 3000 nM each time.

With `CC(=O)N1CC[C@H]2CC[C@@H](C(=O)N(C)c3ccc(OCCN(C)C)cc3)N2C(=O)[C@@H](NC(=O)c2cc3cc(C(F)(F)P(=O)(OCOC(=O)C(C)(C)C)OCOC(=O)C(C)(C)C)ccc3s2)C1` [Compound 327, ((((2-(((5S,8S, 10aR)-3-acetyl-8-((4-(2-(dimethyl-amino)ethoxy)phenyl) (methyl)carbamoyl)-6-oxodecahydro-pyrrolo[1,2-a][1,5]diazocin-5-yl)carbamoyl)benzo[b]thiophen-5-yl)difluoro-methyl)phos-phoryl)bis(oxy)) bis(methylene) bis(2,2-dimethylpro-panoate)], the IC50 in experiment [1] and in experiment [2] was over 3000 nM in each case.

One may read the IC50 as the concentration at which inhibition is half-maximal.
